{"source": "paper PMC13464545", "about": "“Mouse Norovirus Uses Host Metabolites to Enhance Receptor Binding and Evade Immune Recognition” (Medical research archives, 2022)", "biological_target": "T1, MNV P domain (Murine norovirus 1, UniProt Q80J94)", "T1 construct": "gene ORF2; C-terminal protruding (P) domain of VP1, expressed as soluble form without the shell domain; dimerizes", "T1 sequence (Q80J94 229-541)": "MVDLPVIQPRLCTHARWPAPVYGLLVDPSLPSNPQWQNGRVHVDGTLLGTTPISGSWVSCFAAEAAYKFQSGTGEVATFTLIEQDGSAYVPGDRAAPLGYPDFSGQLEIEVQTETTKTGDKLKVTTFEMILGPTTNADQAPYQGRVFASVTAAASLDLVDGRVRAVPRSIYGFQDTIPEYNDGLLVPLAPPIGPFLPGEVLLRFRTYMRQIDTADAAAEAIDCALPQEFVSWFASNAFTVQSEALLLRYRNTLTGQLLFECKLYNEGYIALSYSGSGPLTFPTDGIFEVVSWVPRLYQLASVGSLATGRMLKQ", "assay": "isothermal titration calorimetry", "type": "binding"}
{"molecule": "C[C@H](CCC(=O)NCC(=O)O)[C@H]1CC[C@H]2[C@@H]3[C@H](O)C[C@@H]4C[C@H](O)CC[C@]4(C)[C@H]3CC[C@]12C", "note": "[GCDCA]", "values": [{"measurement": "Kd", "result": "~13", "unit": "µM"}]}
